Each structure is given as a SMILES string. pIC50: −log10 of the molar value.

Chain of Steroidogenic factor 1 (Q13285 whole entry, the tested form may be a part): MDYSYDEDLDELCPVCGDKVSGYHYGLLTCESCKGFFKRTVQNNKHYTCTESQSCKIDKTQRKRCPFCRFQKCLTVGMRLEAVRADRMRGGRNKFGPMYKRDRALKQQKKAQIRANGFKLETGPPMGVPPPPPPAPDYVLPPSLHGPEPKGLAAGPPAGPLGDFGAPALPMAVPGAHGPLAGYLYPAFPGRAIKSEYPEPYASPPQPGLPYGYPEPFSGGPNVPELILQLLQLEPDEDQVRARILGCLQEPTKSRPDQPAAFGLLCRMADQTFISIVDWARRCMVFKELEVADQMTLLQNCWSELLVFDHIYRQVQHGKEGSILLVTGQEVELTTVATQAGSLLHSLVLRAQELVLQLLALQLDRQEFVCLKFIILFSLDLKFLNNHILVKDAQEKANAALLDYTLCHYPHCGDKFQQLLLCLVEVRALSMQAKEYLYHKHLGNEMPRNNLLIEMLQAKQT

The first assay has as its target Steroidogenic factor 1 (Homo sapiens, UniProt Q13285). Kind of assay: SF-1 inhibitor potency, dose response, cell-based, CHO-K1, Gal4-SF-1 LBD, luciferase luminescence (AID 600).
Details: not given
Molecule `C[S+]([O-])c1nc(-c2ccc(Br)cc2)cc(-c2ccccc2)c1C#N` (stereo unspecified) [6-(4-bromophenyl)-2-(methylsulfinyl)-4-phenylnicotinonitrile] showed a pIC50 of 5.28.

`CCCc1ccc(-c2ccc(F)c(N)c2)nc1` [2-fluoranyl-5-(5-propylpyridin-2-yl)aniline]: the negative logarithm of the IC50 (pIC50) is 5.13.

`Cc1cc(C=Nn2cnnc2)c(C)n1-c1ccc(OCc2ccc(F)cc2)cc1` [MLS000112167] had a pIC50 of less than 5.44.

Molecule `COc1cc(C2c3ccc(N)cc3OC(=N)C2C#N)cc(OC)c1OC` (stereo unspecified) [2,7-bis(azanyl)-4-(3,4,5-trimethoxyphenyl)-4H-chromene-3-carbonitrile] had a pIC50 of 5.10.

On to `COc1ccc(O)c(C(=O)CC(=O)c2ccc(F)cc2)c1` [1-(4-fluorophenyl)-3-(2-hydroxy-5-methoxy-phenyl)propane-1,3-dione], for which the pIC50 was less than 4.96.

`CCCCOc1ccccc1NC(=O)Cn1c(-c2nonc2N)nc2ccccc21` [2-[2-(4-amino-1,2,5-oxadiazol-3-yl)-1-benzimidazolyl]-N-(2-butoxyphenyl)acetamide] had a pIC50 of less than 5.44.

`CN(C)c1ccc2c(c1)OC(=N)C(C#N)C2c1cccc(F)c1` (stereo unspecified) [2-amino-7-(dimethylamino)-4-(3-fluorophenyl)-4H-1-benzopyran-3-carbonitrile] gave a negative-log IC50 (pIC50) of 4.96.

For the molecule `O=C(O)c1cccc(COc2ccc(CO)cc2Cl)c1` [3-[(2-chloro-4-methylol-phenoxy)methyl]benzoic acid], the pIC50 is 6.26.

With `Cc1sc(NC(=O)c2ccco2)c(C(c2cccnc2)N2CCN(c3ccc(F)cc3)CC2)c1C` (stereo unspecified) [MLS000114428], the pIC50 is less than 4.96.

`CCCC(=O)N1CCN(c2ccc(NC(=O)c3cc4ccccc4o3)cc2Cl)CC1` [MLS000096729] gave a pIC50 of 5.06.

`COc1ccccc1-c1nnc(Nc2nc3c(OC)cccc3s2)o1` [(4-methoxy-1,3-benzothiazol-2-yl)-[5-(2-methoxyphenyl)-1,3,4-oxadiazol-2-yl]amine]: the pIC50 is 5.19.

As for `O=c1cc(N2CCN(c3ccccc3)CC2)[nH]c(=O)n1C1CCCCC1` [MLS000094382], the pIC50 is 5.52.

Take `CCOC(=O)N1CCN(C(=O)C2CCN(c3ncnc4c3sc3cccc(F)c34)CC2)CC1` [4-[1-(9-fluorobenzothiopheno[3,2-d]pyrimidin-4-yl)isonipecotoyl]piperazine-1-carboxylic acid ethyl ester]: the negative-log IC50 (pIC50) is 5.10.

With `Clc1ccc(-c2nnc(NC3=NCCCCC3)o2)cc1`, the negative logarithm of the IC50 (pIC50) is less than 5.44.

`Cc1ccc(-c2nc(-c3ccccn3)no2)cc1Cl` [5-(3-chloranyl-4-methyl-phenyl)-3-pyridin-2-yl-1,2,4-oxadiazole] gave a pIC50 of less than 5.91.

As for `CCC(NC(=O)Nc1nnc(C(F)(F)F)s1)(C(F)(F)F)C(F)(F)F`, the pIC50 is less than 4.96.

For the molecule `c1cncc(-c2nnc(SCc3nc4ccccc4[nH]3)o2)c1` [MLS000062679], the pIC50 was less than 4.00.

Molecule `COc1cccc(N2CCN(c3ncnc4c3[nH]c3ccc(F)cc34)CC2C)c1` (stereo unspecified) [8-fluoranyl-4-[4-(3-methoxyphenyl)-3-methyl-piperazin-1-yl]-5H-pyrimido[5,4-b]indole] showed a negative logarithm of the IC50 (pIC50) of 5.68.

Consider `Cc1ccc(-c2csc3ncnc(Sc4nnc(CN5CCCCCC5=O)o4)c23)cc1` [1-[[5-[5-(4-methylphenyl)thieno[2,3-d]pyrimidin-4-yl]sulfanyl-1,3,4-oxadiazol-2-yl]methyl]azepan-2-one], for which the negative-log IC50 (pIC50) is 5.24.

In turn, `COc1cc2nc(S)n3nc(CCn4nc(C)cc4C)nc3c2cc1OC` showed a pIC50 of 5.30.

For `COc1ccc(-n2ncc3c(N4CCCCC4)ncnc32)cc1` [1-(4-methoxyphenyl)-4-(1-piperidinyl)pyrazolo[3,4-d]pyrimidine], the pIC50 is 5.75.

In turn, `Cc1ccc(-c2nc(-c3ccccn3)no2)cc1` [5-(4-methylphenyl)-3-(2-pyridinyl)-1,2,4-oxadiazole] had a pIC50 of 5.90.

For `COc1cc(OC)cc(-c2cc3nc(C)c(CCC(=O)O)c(C)n3n2)c1` [3-[2-(3,5-dimethoxyphenyl)-5,7-dimethyl-6-pyrazolo[1,5-a]pyrimidinyl]propanoic acid], the negative logarithm of the IC50 (pIC50) is 6.20.

The molecule `c1ccc(-c2nc(N3CCCCCC3)c3ccccc3n2)nc1` [SMR000046752] showed a pIC50 of 5.46. This pIC50 lies 0.74 log units lower than the previous one.

In turn, `Nc1nsc2ccccc12` [1,2-benzothiazol-3-amine] gave a pIC50 of 5.17.

As for `CCOC(=O)C(C)Oc1cccc2c(=O)n(CC(=O)NCc3ccc4c(c3)OCO4)ccc12` (stereo unspecified) [ethyl 2-[(2-{[(2H-1,3-benzodioxol-5-ylmethyl)carbamoyl]methyl}-1-oxo-1,2-dihydroisoquinolin-5-yl)oxy]propanoate], the pIC50 is 6.50.

In turn, `c1ccc(-c2noc(-c3ccc4c(c3)OCO4)n2)nc1` [2-[5-(1,3-benzodioxol-5-yl)-1,2,4-oxadiazol-3-yl]pyridine] showed a negative logarithm of the IC50 (pIC50) of 5.87. This pIC50 lies 0.63 log units lower than the previous one.

`Cc1cc(C=c2sc3nc4ccccc4n3c2=O)c(C)n1-c1ccccn1` [2-[(2,5-dimethyl-1-pyridin-2-yl-pyrrol-3-yl)methylidene]-[1,3]thiazolo[3,2-a]benzimidazol-1-one]: the pIC50 was less than 8.30.

The molecule `COc1cc2c(cc1NC(=O)CSc1nnnn1-c1ccccc1)oc1ccccc12` [MLS000082182] showed a pIC50 of 5.22.

`CCOC(=O)c1cnc(-n2nc(C)cc2C)nc1NC(C)c1ccccc1` (stereo unspecified) [2-(3,5-dimethyl-1-pyrazolyl)-4-(1-phenylethylamino)-5-pyrimidinecarboxylic acid ethyl ester]: the pIC50 is 5.16.

On to `CCN1C=CC(=C2C(=O)c3ccccc3C2=O)C=C1` [2-(1-ethyl-4-pyridinylidene)indene-1,3-dione], for which the pIC50 was 6.02.

In turn, `CN(C)c1ccc(N=CCC(=O)c2ccccc2)cc1` [(E)-3-[4-(dimethylamino)anilino]-1-phenyl-2-propen-1-one] had a negative-log IC50 (pIC50) of less than 4.96.

The molecule `CCOc1ccccc1C(=O)N1CCN(c2cccc(Cl)c2)CC1` [1-(3-chlorophenyl)-4-(2-ethoxybenzoyl)piperazine] showed a pIC50 of less than 5.91.

Regarding `COc1ccc(-c2nc(CSCC(=O)NCc3ccco3)c(C)o2)cc1` [MLS000089353], the pIC50 is 5.23.

The molecule `COc1ccc(-c2noc(CCCC(=O)O)n2)cc1` [4-[3-(4-methoxyphenyl)-1,2,4-oxadiazol-5-yl]butanoic acid] showed a pIC50 of 6.20. This pIC50 is 0.97 log units higher than that of the molecule before.

In turn, `CC(=O)c1c(C)[nH]c(C(=O)OCCCCN2C(=O)c3ccccc3C2=O)c1C` [4-acetyl-3,5-dimethyl-1H-pyrrole-2-carboxylic acid 4-(1,3-dioxo-2-isoindolyl)butyl ester] gave a pIC50 of 5.59. This pIC50 lies 0.61 log units lower than the previous one.

For `Nc1cccc(-c2nc3ccc(N)cc3s2)c1` [2-(3-Amino-phenyl)-benzothiazol-6-ylamine], the pIC50 is less than 5.44.

Consider `COc1cc(CC(NC(C)=O)C(=O)NC2CCN(c3nc(C)cc(C)c3C#N)CC2)cc(OC)c1` (stereo unspecified) [2-Acetylamino-N-(3'-cyano-4',6'-dimethyl-3,4,5,6-tetrahydro-2H-[1,2']bipyridinyl-4-yl)-3-(3,5-dimethoxy-phenyl)-propionamide], for which the pIC50 is less than 4.48.

With `O=NC1c2cc(S(=O)(=O)N3CCCCC3)ccc2-c2ccc(S(=O)(=O)N3CCCCC3)cc21` [2,7-Bis-(piperidine-1-sulfonyl)-fluoren-9-one oxime], the pIC50 is 5.82.

`Cc1ccc(Nc2cc(C)nn2-c2nc(C)cc(O)n2)cc1` [6-methyl-2-[3-methyl-5-(4-methylanilino)pyrazol-1-yl]-1H-pyrimidin-4-one] showed a negative-log IC50 (pIC50) of 5.36.

As for `c1ccc2nc(-c3nc4ccccc4[nH]3)ccc2c1` [SMR000008748], the negative-log IC50 (pIC50) is 5.62.

As for `CCc1ccc2oc(-c3cc(N)ccc3O)nc2c1` [(6E)-4-amino-6-(5-ethyl-3H-1,3-benzoxazol-2-ylidene)-1-cyclohexa-2,4-dienone], the negative logarithm of the IC50 (pIC50) is less than 5.44.

Turning to `COc1ccc2[nH]c3nc(SC(C)C)nnc3c2c1` [8-methoxy-3-propan-2-ylsulfanyl-5H-[1,2,4]triazino[5,6-b]indole], the negative-log IC50 (pIC50) is 5.04.

As for `c1ccc(-c2nc(NCc3ccco3)c3ccccc3n2)nc1` [2-furfuryl-[2-(2-pyridyl)quinazolin-4-yl]amine], the pIC50 was 5.17.

In turn, `CC1CCCCC1NS(=O)(=O)c1ccc(S(=O)(=O)NCc2ccncc2)cc1` (stereo unspecified) [4-N-(2-methylcyclohexyl)-1-N-(pyridin-4-ylmethyl)benzene-1,4-disulfonamide] had a pIC50 of less than 4.48.

The molecule `COc1ccc(-c2cc3nc4n(c(=O)c3s2)CCOC4)cc1` [2-(4-methoxyphenyl)-7,8-dihydro-5H-thieno[1,2]pyrimido[4,5-a][1,4]oxazin-10-one] showed a negative logarithm of the IC50 (pIC50) of 5.17.

Still in this assay, the particulars now being: inactive by the depositor's call.
For the molecule `COc1ccccc1OCC(=O)c1[nH]c(C)c(C(C)=O)c1C` [MLS000053479], the pIC50 was 4.48.

Consider `O=S(=O)(NCc1cn2ccsc2n1)c1ccc(Oc2ccccc2)cc1` [MLS000094195], for which the pIC50 was 4.46. The pIC50 values of the last two molecules are within 0.2 log units of each other.

As to `Cc1ccc2[nH]c3c(N4CCCCCC4)ncnc3c2c1` [4-(azepan-1-yl)-8-methyl-5H-pyrimido[5,4-b]indole], the pIC50 is 4.96. Against the preceding molecule, the pIC50 is 0.50 log units higher.

Consider `COc1ccc(Nc2cc(C)nc(-n3nc(C)cc3C)n2)cc1` [2-(3,5-dimethyl-1-pyrazolyl)-N-(4-methoxyphenyl)-6-methyl-4-pyrimidinamine], for which the negative-log IC50 (pIC50) is 4.90.

On to `O=C(Nc1nnc(C2CC2)o1)c1ccc(S(=O)(=O)N2CCCc3ccccc32)cc1` [MLS000116109], for which the negative logarithm of the IC50 (pIC50) is 4.86.

Consider `Cc1ccc(-c2csc(N3CCC(NS(=O)(=O)c4ccc5c(c4)OCCO5)CC3)n2)cc1` [N-[1-[4-(4-methylphenyl)-1,3-thiazol-2-yl]piperidin-4-yl]-2,3-dihydro-1,4-benzodioxine-6-sulfonamide], for which the negative logarithm of the IC50 (pIC50) is 4.95. This pIC50 and that of the molecule before are within 0.2 log units of each other.

Consider `CC(C)OCCCNc1ncnc2c1[nH]c1ccc(F)cc12`, for which the pIC50 was 4.68.

Molecule `COc1ccc(CC(=O)Nc2ccc(-c3nnc(-c4ccccc4)o3)cc2)cc1` [2-(4-methoxyphenyl)-N-[4-(5-phenyl-1,3,4-oxadiazol-2-yl)phenyl]acetamide] gave a negative-log IC50 (pIC50) of 4.74.

`N#C/C(=C\c1ccc(O)c(O)c1)C(=O)NCCCc1ccccc1` [MLS000069704] had a negative-log IC50 (pIC50) of 4.87.

On to `Cn1nc(CC(=O)Nc2ccc3c(c2)OCCO3)c2ccccc2c1=O` [MLS000047020], for which the pIC50 is 4.89.

The values above are taken from BindingDB's records for doi:10.7270/Q2319T8T (The Scripps Research Institute Molecular Screening Center, 2007).
